Experimental data taken from ChEMBL document CHEMBL1159209, “Antineoplastic agents, 294. Variations in the formation of pancratistatin and related isocarbostyrils in Hymenocallis littoralis” (J Nat Prod, 1995).
Active and inactive are the calls of the source. No cut-off for these calls is given here.

Experiments:
P388 = assay: In vivo cytotoxicity against mouse P388 cells; type: functional, organism-based
M5076 = assay: In vivo cytotoxicity against mouse M5076 cells; type: functional, organism-based

With `O=C1N[C@H]2[C@H](O)[C@H](O)[C@@H](O)[C@H](O)[C@@H]2c2cc3c(c(O)c21)OCO3` the Activity (P388) was “Active” and the Activity (M5076) was “Active”.
